Laboratory results from ChEMBL document CHEMBL1146342, “Respiratory syncytial virus fusion inhibitors. Part 4: optimization for oral bioavailability” (Bioorg Med Chem Lett, 2007).

Key:
in vitro = details: human, Caco-2, permeability
in vivo [1] = details: rat, plasma, po, 5 mg/kg
in vivo [2] = details: mouse, plasma, po, 10 mg/kg
in vivo [3] = details: dog, plasma, po, 0.5 mg/kg
in vivo [4] = details: cynomolgus monkey, plasma, po, 0.5 mg/kg
physchem = details: octanol/water, pH 6.5

| Compound | Papp (in vitro) [×10⁻⁶ cm/s] | AUC (in vivo [1]) [ng·h/mL] | AUC (in vivo [2]) [ng·h/mL] | AUC (in vivo [3]) [ng·h/mL] | AUC (in vivo [4]) [ng·h/mL] | logD (physchem) |
| --- | --- | --- | --- | --- | --- | --- |
| O=c1n(Cc2nc3ccccc3n2CCCCF)c2cnccc2n1CC(F)(F)F | 24.5 | – | – | – | – | – |
| CC(C)(C)n1c(=O)n(Cc2nc3ccccc3n2CCCC#N)c2cnccc21 | 21.4 | – | – | – | – | – |
| CS(=O)(=O)CCCn1c(Cn2c(=O)n(CC(F)(F)F)c3ccncc32)nc2ccccc21 | 3.6 | 40 | 1430 | 307 | 185 | – |
| CCS(=O)(=O)CCCn1c(Cn2c(=O)n(CC(F)(F)F)c3ccncc32)nc2ccccc21 | – | 133 | 2000 | 438 | 118 | – |
| N#CCCCn1c(Cn2c(=O)n(CC(F)(F)F)c3ccncc32)nc2ccccc21 | 19.7 | – | – | – | – | – |

Second part, the compound after the results:

| Papp (in vitro) [×10⁻⁶ cm/s] | AUC (in vivo [1]) [ng·h/mL] | AUC (in vivo [2]) [ng·h/mL] | AUC (in vivo [3]) [ng·h/mL] | AUC (in vivo [4]) [ng·h/mL] | logD (physchem) | Compound |
| --- | --- | --- | --- | --- | --- | --- |
| – | 973 | 600 | 755 | 270 | 2.1 | N#CCCCn1c(Cn2c(=O)n(C3CC3)c3ccncc32)nc2ccccc21 |
| 16.9 | – | – | – | – | – | CC(C)n1c(=O)n(Cc2nc3ccccc3n2CCCC#N)c2cnccc21 |
